Assay results from ChEMBL document CHEMBL4392832, “Surveying heterocycles as amide bioisosteres within a series of mGlu7 NAMs: Discovery of VU6019278” (Bioorg Med Chem Lett, 2019).

Tests used:
[1] = molecular target: Metabotropic glutamate receptor 7 (Rattus norvegicus, UniProt P35400); experiment: (§1) Negative allosteric modulation of rat mGlu7 receptor expressed in HEK cells co-expressing Galpha15 assessed as reduction in calcium mobilization incubated for 142 secs prior to glutamate addition for 120 secs followed by L-AP4 addition and measured after 40 secs by Fluo-4 AM dye based fluorescence assay; format: functional, cell-based
[2] = molecular target: Metabotropic glutamate receptor 7 (Rattus norvegicus) (UniProt P35400); experiment: as §1, with “assessed as minimum L-AP4 response by measuring reduction in” for “assessed as reduction in”, “fluorescence assay relative to L-AP4 alone” for “fluorescence assay”; format: functional, cell-based; design: scale not given: the % may be the effect or the level left
[3] = Protein binding in rat plasma assessed as unbound fraction at 5 uM measured after 4 hrs by LC-MS/MS analysis; format: ADME, cell-free
[4] = Brain to plasma permeability coefficient, Kp of compound in rat; format: ADME, cell-free
[5] = Unbound brain to plasma concentration ratio in rat; format: ADME, cell-free; settings: read-out: K(p,uu,brain)
[6] = Protein binding in rat brain assessed as unbound fraction at 5 uM measured after 6 hrs by LC-MS/MS analysis; format: ADME, tissue-based
[7] = Total drug level in Sprague-Dawley rat brain at 0.2 mg/kg, iv via cassette dosing measured after 0.25 hrs by LC-MS/MS analysis; format: ADME, organism-based; settings: read-out: Drug uptake
[8] = Free drug level in Sprague-Dawley rat brain at 0.2 mg/kg, iv via cassette dosing measured after 0.25 hrs by LC-MS/MS analysis; format: ADME, organism-based; settings: in vivo
[9] = molecular target: Metabotropic glutamate receptor 1 (Homo sapiens, UniProt Q13255); experiment: Negative allosteric modulation of mGlu1 receptor (unknown origin)
[10] = molecular target: Metabotropic glutamate receptor 2 (Homo sapiens, UniProt Q14416); experiment: Negative allosteric modulation of mGlu2 receptor (unknown origin)
[11] = molecular target: Metabotropic glutamate receptor 3 (Homo sapiens, UniProt Q14832); experiment: Negative allosteric modulation of mGlu3 receptor (unknown origin)
[12] = molecular target: Metabotropic glutamate receptor 4 (Homo sapiens, UniProt Q14833); experiment: Negative allosteric modulation of mGlu4 receptor (unknown origin)
[13] = molecular target: Metabotropic glutamate receptor 5 (Homo sapiens, UniProt P41594); experiment: Negative allosteric modulation of mGlu5 receptor (unknown origin)
[14] = molecular target: Metabotropic glutamate receptor 6 (Homo sapiens, UniProt O15303); experiment: Negative allosteric modulation of mGlu6 receptor (unknown origin)
[15] = molecular target: Metabotropic glutamate receptor 8 (Homo sapiens, UniProt O00222); experiment: Negative allosteric modulation of mGlu8 receptor (unknown origin)

Sequence of Metabotropic glutamate receptor 7 (Rattus norvegicus) (P35400 whole entry): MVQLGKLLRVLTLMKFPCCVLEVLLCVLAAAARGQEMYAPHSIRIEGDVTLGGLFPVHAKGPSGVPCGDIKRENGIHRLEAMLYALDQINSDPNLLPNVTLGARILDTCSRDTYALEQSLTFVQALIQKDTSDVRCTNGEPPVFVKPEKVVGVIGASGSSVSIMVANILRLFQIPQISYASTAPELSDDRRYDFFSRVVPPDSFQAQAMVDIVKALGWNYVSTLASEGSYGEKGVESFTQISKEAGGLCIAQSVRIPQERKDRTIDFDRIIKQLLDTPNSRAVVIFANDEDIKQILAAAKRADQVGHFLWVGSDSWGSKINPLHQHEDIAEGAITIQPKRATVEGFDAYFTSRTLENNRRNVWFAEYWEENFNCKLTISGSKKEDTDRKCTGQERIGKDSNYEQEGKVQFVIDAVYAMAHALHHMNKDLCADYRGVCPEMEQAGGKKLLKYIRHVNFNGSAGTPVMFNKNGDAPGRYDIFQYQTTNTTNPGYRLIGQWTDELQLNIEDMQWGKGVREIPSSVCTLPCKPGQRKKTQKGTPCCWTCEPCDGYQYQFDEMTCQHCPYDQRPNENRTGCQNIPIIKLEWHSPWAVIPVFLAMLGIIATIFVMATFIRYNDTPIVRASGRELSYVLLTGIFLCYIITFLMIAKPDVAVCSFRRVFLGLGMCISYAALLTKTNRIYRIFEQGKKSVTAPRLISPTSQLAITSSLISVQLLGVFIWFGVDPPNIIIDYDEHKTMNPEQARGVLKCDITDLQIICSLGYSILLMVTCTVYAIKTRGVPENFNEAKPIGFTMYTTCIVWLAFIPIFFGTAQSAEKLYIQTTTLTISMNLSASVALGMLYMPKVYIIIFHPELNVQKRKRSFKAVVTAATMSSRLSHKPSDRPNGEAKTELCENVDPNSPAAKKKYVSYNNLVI
Sequence of Metabotropic glutamate receptor 7 (P35400 whole entry): as above
Sequence of Metabotropic glutamate receptor 2 (Q14416 whole entry): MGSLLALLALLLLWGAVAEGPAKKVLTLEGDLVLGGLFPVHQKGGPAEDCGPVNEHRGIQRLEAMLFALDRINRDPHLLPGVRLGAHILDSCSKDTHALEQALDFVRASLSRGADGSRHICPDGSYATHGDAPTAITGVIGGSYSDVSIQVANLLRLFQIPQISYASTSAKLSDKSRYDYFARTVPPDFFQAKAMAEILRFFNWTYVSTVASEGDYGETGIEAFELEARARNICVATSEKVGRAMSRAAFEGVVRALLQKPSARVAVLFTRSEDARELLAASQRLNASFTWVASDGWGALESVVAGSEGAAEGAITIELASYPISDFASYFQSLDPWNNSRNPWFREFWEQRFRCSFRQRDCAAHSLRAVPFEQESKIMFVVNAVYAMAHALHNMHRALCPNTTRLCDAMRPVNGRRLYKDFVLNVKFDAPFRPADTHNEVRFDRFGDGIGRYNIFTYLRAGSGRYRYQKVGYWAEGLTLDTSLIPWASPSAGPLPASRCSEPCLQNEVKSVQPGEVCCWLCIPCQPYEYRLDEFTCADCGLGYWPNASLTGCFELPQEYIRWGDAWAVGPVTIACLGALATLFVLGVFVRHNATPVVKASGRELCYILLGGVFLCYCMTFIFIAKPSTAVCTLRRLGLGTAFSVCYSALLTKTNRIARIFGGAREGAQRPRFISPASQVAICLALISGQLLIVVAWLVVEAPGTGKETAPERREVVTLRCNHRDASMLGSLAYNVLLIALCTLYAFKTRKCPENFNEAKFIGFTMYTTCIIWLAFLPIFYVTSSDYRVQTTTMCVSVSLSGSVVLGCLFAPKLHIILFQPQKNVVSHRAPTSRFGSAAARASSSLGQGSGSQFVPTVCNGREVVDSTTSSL
Sequence of Metabotropic glutamate receptor 6 (O15303 whole entry): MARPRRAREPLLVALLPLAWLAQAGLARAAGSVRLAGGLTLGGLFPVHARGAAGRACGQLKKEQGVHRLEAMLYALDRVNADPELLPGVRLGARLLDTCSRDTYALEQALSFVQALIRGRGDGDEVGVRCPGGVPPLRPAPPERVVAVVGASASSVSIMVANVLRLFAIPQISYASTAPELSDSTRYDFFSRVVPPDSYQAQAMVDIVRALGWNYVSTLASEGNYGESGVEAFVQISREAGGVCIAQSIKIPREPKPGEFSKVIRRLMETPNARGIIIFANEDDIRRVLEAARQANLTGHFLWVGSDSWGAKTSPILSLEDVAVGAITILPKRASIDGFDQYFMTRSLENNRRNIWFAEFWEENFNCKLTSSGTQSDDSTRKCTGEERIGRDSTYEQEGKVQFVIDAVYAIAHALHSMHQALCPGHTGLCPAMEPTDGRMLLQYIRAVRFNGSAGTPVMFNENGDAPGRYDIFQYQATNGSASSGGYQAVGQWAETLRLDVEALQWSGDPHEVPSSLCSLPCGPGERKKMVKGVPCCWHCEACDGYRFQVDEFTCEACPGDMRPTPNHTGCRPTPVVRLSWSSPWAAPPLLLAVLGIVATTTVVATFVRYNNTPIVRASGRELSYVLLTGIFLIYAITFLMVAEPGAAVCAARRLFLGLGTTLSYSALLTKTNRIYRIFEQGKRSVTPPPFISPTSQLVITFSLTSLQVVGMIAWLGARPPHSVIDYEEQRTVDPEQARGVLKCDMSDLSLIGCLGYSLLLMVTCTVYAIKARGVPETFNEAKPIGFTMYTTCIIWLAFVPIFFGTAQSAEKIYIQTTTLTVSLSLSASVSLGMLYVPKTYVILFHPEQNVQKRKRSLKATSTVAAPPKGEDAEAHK
Sequence of Metabotropic glutamate receptor 1 (Q13255 whole entry): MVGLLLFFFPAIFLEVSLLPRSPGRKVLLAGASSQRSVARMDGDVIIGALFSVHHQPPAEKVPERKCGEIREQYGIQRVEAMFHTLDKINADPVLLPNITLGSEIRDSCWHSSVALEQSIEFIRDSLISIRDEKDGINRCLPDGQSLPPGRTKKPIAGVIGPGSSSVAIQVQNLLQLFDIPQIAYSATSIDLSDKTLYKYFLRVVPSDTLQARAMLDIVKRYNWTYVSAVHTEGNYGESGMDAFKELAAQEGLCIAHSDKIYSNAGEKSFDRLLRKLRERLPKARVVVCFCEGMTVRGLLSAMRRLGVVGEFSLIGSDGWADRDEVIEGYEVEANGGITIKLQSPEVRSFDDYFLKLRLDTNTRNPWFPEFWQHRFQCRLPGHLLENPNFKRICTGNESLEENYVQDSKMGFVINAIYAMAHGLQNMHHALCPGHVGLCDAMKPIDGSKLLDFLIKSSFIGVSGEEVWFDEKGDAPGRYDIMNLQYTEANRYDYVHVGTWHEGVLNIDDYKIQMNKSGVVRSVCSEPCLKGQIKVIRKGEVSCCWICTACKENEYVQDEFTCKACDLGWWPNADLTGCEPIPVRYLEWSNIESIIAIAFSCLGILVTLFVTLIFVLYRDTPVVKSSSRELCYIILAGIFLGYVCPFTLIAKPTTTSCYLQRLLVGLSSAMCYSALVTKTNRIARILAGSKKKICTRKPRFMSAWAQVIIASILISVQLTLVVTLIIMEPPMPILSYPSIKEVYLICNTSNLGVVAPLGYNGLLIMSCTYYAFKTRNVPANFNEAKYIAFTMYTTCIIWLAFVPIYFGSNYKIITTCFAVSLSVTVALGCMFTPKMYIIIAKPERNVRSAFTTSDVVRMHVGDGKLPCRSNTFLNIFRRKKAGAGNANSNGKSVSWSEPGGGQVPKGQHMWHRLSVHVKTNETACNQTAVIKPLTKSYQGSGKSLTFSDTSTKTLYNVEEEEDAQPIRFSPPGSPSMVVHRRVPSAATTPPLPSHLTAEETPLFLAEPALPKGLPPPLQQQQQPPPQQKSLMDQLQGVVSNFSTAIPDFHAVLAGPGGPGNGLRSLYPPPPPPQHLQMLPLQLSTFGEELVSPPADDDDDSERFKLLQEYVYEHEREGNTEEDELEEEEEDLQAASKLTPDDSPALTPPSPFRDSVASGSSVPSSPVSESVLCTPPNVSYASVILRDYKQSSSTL
Sequence of Metabotropic glutamate receptor 4 (Q14833 whole entry): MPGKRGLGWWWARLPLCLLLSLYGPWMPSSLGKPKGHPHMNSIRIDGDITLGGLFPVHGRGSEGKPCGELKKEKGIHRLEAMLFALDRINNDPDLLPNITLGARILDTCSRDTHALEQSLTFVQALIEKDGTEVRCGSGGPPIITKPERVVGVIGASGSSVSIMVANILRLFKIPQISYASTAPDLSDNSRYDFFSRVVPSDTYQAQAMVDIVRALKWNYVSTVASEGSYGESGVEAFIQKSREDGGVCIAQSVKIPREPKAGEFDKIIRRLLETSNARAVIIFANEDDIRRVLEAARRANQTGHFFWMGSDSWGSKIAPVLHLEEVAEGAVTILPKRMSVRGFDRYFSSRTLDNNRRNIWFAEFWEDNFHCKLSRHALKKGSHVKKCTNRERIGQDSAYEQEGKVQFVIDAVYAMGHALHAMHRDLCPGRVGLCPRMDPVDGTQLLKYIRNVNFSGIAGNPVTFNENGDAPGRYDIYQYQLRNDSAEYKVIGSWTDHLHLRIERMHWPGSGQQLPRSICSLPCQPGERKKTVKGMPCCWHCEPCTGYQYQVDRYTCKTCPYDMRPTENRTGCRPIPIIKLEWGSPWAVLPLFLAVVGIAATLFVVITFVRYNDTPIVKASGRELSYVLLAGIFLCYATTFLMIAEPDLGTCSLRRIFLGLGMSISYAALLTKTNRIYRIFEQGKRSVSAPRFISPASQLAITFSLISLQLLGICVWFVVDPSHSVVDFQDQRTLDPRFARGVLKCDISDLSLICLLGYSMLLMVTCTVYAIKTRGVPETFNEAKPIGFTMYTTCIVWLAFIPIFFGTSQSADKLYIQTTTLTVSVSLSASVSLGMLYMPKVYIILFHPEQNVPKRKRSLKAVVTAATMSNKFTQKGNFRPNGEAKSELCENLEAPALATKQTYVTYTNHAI

| SMILES | IC50 ([1]; read-out: IC50) [µM] | Activity [2] [%] | further results |
| --- | --- | --- | --- |
| COc1ccc(-c2nnc(-c3cc(OC(F)(F)F)ccc3N3CCOCC3)o2)cc1OC | 1.18 | 23.1 | – |
| COc1ccc(-c2nnc3sc(-c4cc(OC(F)(F)F)ccc4-n4cncn4)nn23)cc1OC | – | – | IC50 [1]: Not Active |
| COc1ccc(-c2ccn3c(-c4cc(OC(F)(F)F)ccc4-n4cncn4)nnc3c2)cc1OC | – | – | IC50 [1]: Not Active |
| COc1ccc(-c2nn3cc(-c4cc(OC(F)(F)F)ccc4-n4cncn4)nc3s2)cc1OC | – | – | IC50 [1]: Not Active |
| FC(F)(F)Oc1ccc(-n2cncn2)c(-c2nnc(-c3ccc4c(c3)OCCO4)o2)c1 | > 30 | – | – |
| FC(F)(F)Oc1ccc(-n2cncn2)c(-c2nnc(-c3ccc4c(c3)OC(F)(F)O4)o2)c1 | > 30 | – | – |
| COc1ccc(-c2nnc(-c3cc(OC(F)(F)F)ccc3-n3cncn3)o2)c(F)c1F | > 30 | – | – |
| COc1ccc(-c2nnc(-c3cc(OC(F)(F)F)ccc3-c3cn[nH]c3)o2)cc1OC | 2.24 | 10.3 | – |
| COc1ccc(-c2nnc(-c3cc(OC(F)(F)F)ccc3-n3cncn3)o2)cn1 | > 30 | – | – |
| COc1ccc(-c2nnc(-c3cc(OC(F)(F)F)ccc3-c3cnn(C)c3)o2)cc1OC | > 30 | – | – |
| FC(F)(F)Oc1ccc(-n2cncn2)c(-c2nnc(-c3ccc4c(c3)OCO4)o2)c1 | > 30 | – | – |
| COc1ccc(-c2nnc(-c3cc(OC(F)(F)F)ccc3-c3cscn3)o2)cc1OC | 3.53 | 49.2 | – |
| COc1ccc(-c2nnc(-c3cc(OC(F)(F)F)ccc3-c3cccnc3)o2)cc1OC | > 30 | – | – |
| COc1ccc(-c2ccc3nnc(-c4cc(OC(F)(F)F)ccc4-n4cncn4)n3n2)cc1OC | – | – | IC50 [1]: Not Active |
| COc1ccc(-c2nnc(-c3cc(OC(F)(F)F)ccc3-c3ccnnc3)o2)cc1OC | ≥ 10 | 27.6 | – |
| COc1cc(-c2nnc(-c3cc(OC(F)(F)F)ccc3-n3cncn3)o2)ccn1 | ≥ 10 | 68.9 | – |
| COc1ccc(-c2nnc(-c3cc(OC(F)(F)F)ccc3N3CCCC3)o2)cc1OC | > 30 | – | – |
| COc1ccc(-c2nnc(-c3cc(OC(F)(F)F)ccc3N3CCN(C)CC3)o2)cc1OC | > 30 | – | – |
| COc1ccc(-c2nnc(-c3cc(OC(F)(F)F)ccc3-c3ccncc3)o2)cc1OC | ≥ 10 | 27.9 | – |
| COc1ccc(-c2nnnn2-c2cc(OC(F)(F)F)ccc2-n2cncn2)cc1OC | – | – | IC50 [1]: Not Active |
| COc1ccc(-c2nnc(-c3cc(OC(F)(F)F)ccc3-c3ccnn3C)o2)cc1OC | – | 20.6 | – |
| COc1ccc(-c2nnc(-c3cc(OC(F)(F)F)ccc3N3CCCCC3)o2)cc1OC | 5.86 | 65.4 | – |

The next lines start with results.

| IC50 ([1]; read-out: IC50) [µM] | Activity [2] [%] | SMILES | further results |
| --- | --- | --- | --- |
| 2.08 | 36.5 | COc1ccc(-c2cnc(-c3cc(OC(F)(F)F)ccc3-n3cncn3)o2)cc1OC | – |
| 1.31 | 13.2 | COc1cc(-c2nnc(-c3cc(OC(F)(F)F)ccc3-n3cncn3)o2)ccc1OCC1CC1 | fraction unbound at 4 h, 5 µM [3]: 0.038; Kp [4]: 2; Kp uu [5]: 0.43 |
| 0.57 | 6.3 | COc1ccc(-c2nnc(-c3cc(OC(F)(F)F)ccc3-n3ccnc3)o2)cc1OC | Fu ([3]; 4 h, 5 µM): 0.1; Kp [4]: 4.9; Kp uu [5]: 0.65; fraction unbound at 6 h, 5 µM [6]: 0.013; concentration at 0.25 h [7]: 456 nM; Drug uptake(free) [8]: 6 nM; IC50 [9]: > 10 µM; IC50 [10]: > 10 µM; IC50 [11]: > 10 µM; IC50 [12]: > 10 µM; IC50 [13]: > 10 µM; IC50 [14]: > 10 µM; IC50 [15]: > 10 µM |
| ≥ 10 | 72.8 | COc1cc(F)c(-c2nnc(-c3cc(OC(F)(F)F)ccc3-n3cncn3)o2)cc1OC | – |
| ≥ 10 | 41.5 | COc1ccc(-c2nsc(-c3cc(OC(F)(F)F)ccc3-n3cncn3)n2)cc1OC | – |
| ≥ 10 | 32.4 | COc1ccc(-c2cn(-c3cc(OC(F)(F)F)ccc3-n3cncn3)nn2)cc1OC | – |
| 1.32 | 14.5 | COc1ccc(-c2noc(-c3cc(OC(F)(F)F)ccc3-n3cncn3)n2)cc1OC | – |
| 7.63 | 21.1 | COc1ccc(-c2coc(-c3cc(OC(F)(F)F)ccc3-n3cncn3)n2)cc1OC | – |
| 2.39 | 8.4 | COc1ccc(-c2nc(-c3cc(OC(F)(F)F)ccc3-n3cncn3)no2)cc1OC | – |
| 1.55 | 10.4 | COc1cc(-c2nnc(-c3cc(OC(F)(F)F)ccc3-n3cncn3)o2)ccc1OC1CCC1 | – |
| > 30 | – | COc1ccc(-c2nnc(-c3cc(OC(F)(F)F)ccc3-n3cncn3)o2)cc1F | – |
| 4.38 | 13.5 | COc1cc(-c2nnc(-c3cc(OC(F)(F)F)ccc3-n3cncn3)o2)cnc1OC | – |
| ≥ 10 | 34.2 | COc1ccc(-c2c[nH]c(-c3cc(OC(F)(F)F)ccc3-n3cncn3)n2)cc1OC | – |
| 1.58 | 7.1 | COc1ccc(-c2nnc(-c3cc(OC(F)(F)F)ccc3-n3cncn3)o2)cc1OC | – |
| > 30 | – | COc1cc(-c2nnc(-c3cc(OC(F)(F)F)ccc3-n3cncn3)o2)ccc1F | – |
| > 30 | – | COc1cc(-c2nnc(-c3cc(OC(F)(F)F)ccc3-n3cncn3)o2)cc(F)c1OC | – |
